Assay results published in US20060062758A1, “Tight junction modulator peptide PN159 for enhanced mucosal delivery of therapeutic compounds” (Nastech Pharmaceutical Comapny Inc., priority 2004, published 2006).

How the values were obtained:
[1] = system: EpiAirway™ Cell Membrane (mucosal epithelial cell layer); experiment: Permeation kinetics across the in vitro epithelial tissue model; conditions: for Perm(x)/Perm(159) +/− SEM*: mean values from multiple repeats; for PTH1-34 permeation: 2 mg/ml PTH, pH 4.5
Description: The EpiAirway™ system was developed by MatTek Corp (Ashland, Mass.) as a model of the pseudostratified epithelium lining the respiratory tract. The epithelial cells are grown on porous membrane-bottomed cell culture inserts at an air-liquid interface, which results in differentiation of the cells to a highly polarized morphology. The apical surface is ciliated with a microvillous ultrastructure and the epithelium produces mucus (the presence of mucin has been confirmed by immunoblotting). The inserts have a diameter of 0.875 cm, providing a surface area of 0.6 cm^2. The cells are plated onto the inserts at the factory approximately three weeks before shipping. One “kit” consists of 24 units.
A. A “kit” of 24 EpiAirway™ units can routinely be employed for evaluating five different formulations, each of which is applied to quadruplicate wells. Each well is employed for determination of permeation kinetics (4 time points), transepithelial electrical resistance (TER). An additional set of wells is employed as controls, which are sham treated during determination of permeation kinetics, but are otherwise handled identically to the test sample-containing units for determinations of transepithelial resistance and viability.
B. In all experiments, the mucosal delivery formulation to be studied is applied to the apical surface of each unit in a volume of 100 μL, which is sufficient to cover the entire apical surface. An appropriate volume of the test formulation at the concentration applied to the apical surface (no more than 100 μL is generally needed) is set aside for subsequent determination of concentration of the active material by ELISA or other designated assay.
D. In order to minimize potential sources of error and avoid any formation of concentration gradients, the units are transferred from one 0.9 mL-containing well to another at each time point in the study. These transfers are made at the following time points, based on a zero time at which the 100 μL volume of test material was applied to the apical surface: 15 minutes, 30 minutes, 60 minutes, and 120 minutes.
F. At the completion of each time point, the medium is removed from the well from which each unit was transferred, and aliquotted into two tubes (one tube receives 700 μL and the other 200 μL) for determination of the concentration of permeated test material and, in the event that the test material is cytotoxic, for release of the cytosolic enzyme, lactate dehydrogenase, from the epithelium. These samples are kept in the refrigerator if the assays are to be conducted within 24 hours, or the samples are subaliquotted and kept frozen at −80° C. until thawed once for assays. Repeated freeze-thaw cycles are to be avoided.
EIA kit (p/n S-1178(EIAH6101) was purchased from Peninsula Laboratories Inc. (Division of BACHEM, San Carlos, Calif., 800-922-1516). 17×120 mm polypropylene conical tubes (p/n 352097, Falcon, Franklin Lakes, N.J.) were used for all sample preparations. Eight standards were used for PTH quantitation. The rest of the assay procedure was the same as the kit inserts.
The instant study was designed to evaluate the effect of PN159 itself or in combination with additional permeation enhancers on PTH permeation. The PN159 concentrations evaluated are 25, 50, and 100 μM. The additional permeation enhancers are 45 mg/ml M-β-CD, 1 mg/ml DDPC, and 1 mg/ml EDTA. Sorbitol was used as a tonicifier (146-190 mM) to adjust the osmolarity of formulations to 220 mOsm/kg. The formulation pH was fixed at 4.5. PTH was chosen as a model peptide in this example. 2 mg/ml PTH was combined with PN159 with or without additional permeation enhancers. The combination was tested using an in vitro epithelial tissue model to monitor PTH permeation, transepithelial electrical resistance (TER), and the cytotoxicity of the formulation by LDH assay.
The effect of PN159 on permeation of MC-4RA was evaluated in this study.

[2] = MTT assay (cell viability), in vitro epithelial tissue model; format: cell-based; conditions: human, pH 5; galantamine lactate 40 mg/ml and PN159 at all concentrations tested (25, 50, 100 μM)
[3] = Chemical stability of PN159 in solution (stability indicating HPLC); format: physicochemical; conditions: pH 9 and/or elevated temperature, e.g., 40 to 50° C.
Description: The chemical stability of the PN159 was determined under therapeutically relevant storage conditions. A stability indicating HPLC method was employed. Solutions (50 mM) were stored at various pH (4.0, 7.3, and 9.0) and temperature (5° C., 25° C., 35° C., 40° C., and 50° C.) conditions. Samples at pH 4 contained 10 mM citrate buffer. Samples at pH 7.3 and 9.0 contained 10 mM phosphate buffer. Representative storage stability data (including the Arrhenius plot) are depicted in FIG. 6. […] For example, at 5° C. and pH 4.0 or pH7.3, there was essentially 100% recovery of PN159 for six month storage. […] The pH range of 4.0 to 7.3 and the temperature range of refrigerated to ambient are most relevant for intranasal formulations.

[4] = system: EpiAirway™ Cell Membrane (mucosal epithelial cell layer); experiment: Transepithelial electrical resistance (TER), EpiAirway in vitro epithelial tissue model; format: cell-based

Q: With `CC(C)C[C@H](NC(=O)[C@H](C)NC(=O)[C@H](CCCCN)NC(=O)[C@H](CC(C)C)NC(=O)[C@H](C)NC(=O)[C@H](CC(C)C)NC(=O)[C@H](CCCCN)NC(=O)[C@H](CC(C)C)NC(=O)[C@H](C)NC(=O)[C@H](CC(C)C)NC(=O)[C@@H](N)CCCCN)C(=O)N[C@@H](CCCCN)C(=O)N[C@@H](C)C(=O)N[C@@H](C)C(=O)N[C@@H](CC(C)C)C(=O)N[C@@H](CCCCN)C(=O)N[C@@H](CC(C)C)C(=O)N[C@@H](C)C(N)=O` [PN159] as the compound, how does the “Perm(x)/Perm(159) +/− SEM*” value ([1]; Example 7, length changes, relative to PN159) read?
A: Its value is 1.00.

Q: What about the “permeation of MC-4RA” value ([1]; PN159 5, 25, 50, 100 μM, 10 mg/ml MC-4RA, 45 mg/ml M-β-CD, pH 4) of the same compound?
A: The value was “significantly enhance epithelial permeation”.

Q: And the PTH1-34 permeation ([1]; PN159 25, 50, 100 μM without additional enhancers)?
A: The PTH1-34 permeation was “Significant increase in PTH permeation”.

Q: And the PTH1-34 permeation ([1]; PN159 combined with 45/1/1 mg/ml M-b-CD/DDPC/EDTA)?
A: The PTH1-34 permeation was “Additional increase in PTH permeation”.

Q: What about the “Perm(x)/Perm(159) +/− SEM” value ([1]; Table 6, D-amino acid substitutions, relative to PN159) of the same compound?
A: The value was 1.00 +/− 0.13.

Q: And the “Perm(x)/Perm(159) +/− SEM*” value ([1]; Table 9, hydrophobic faces, relative to PN159)?
A: The value was 1.00 +/− 0.13.

Q: And the viability [2]?
A: Its viability is over 80%.

Q: What about the “chemical stability (in words)” value [3] of the same compound?
A: Its value is “rapid deterioration”.

Q: And the “TER (in words)” value ([4]; PN159 25, 50, 100 μM in the presence of 40 mg/ml galantamine lactate, pH 5.0)?
A: Its value is “reduced TER”.

Q: What about the TER reduction ([4]; PN159 25, 50, 100 μM with 2 mg/ml PTH, pH 4.5) of the same compound?
A: Its TER reduction is “more than 80%”.
